{"source": "patent US5441983A", "about": "“Treatment of infection by enveloped virus with calix(N)arene compounds” (Genelabs Incorporated, priority 1992, dated 1995)", "key": {"HSV-2 [1]": {"tested_on": "HSV-2", "assay": "Plaque reduction assay, HSV-2, Vero cells", "type": "cell-based, HSV-2 (333)", "conditions": "Human alphaherpesvirus 2, Vero"}, "RSV": {"tested_on": "RSV", "assay": "Inhibition of RSV cytopathic effect in HEp2 cells", "type": "cell-based", "conditions": "human respiratory syncytial virus, HEp-2, read-out: ED50 RSV"}, "adenovirus": {"tested_on": "adenovirus", "assay": "Inhibition of adenovirus cytopathic effect in Vero cells", "type": "cell-based, adenoviruses 5 and 7", "conditions": "1-100 μg, 24 h", "method": "The ability of KY compounds to inhibit cell infection by a rhinovirus and adenoviruses 5 and 7 which are non-enveloped viruses, was similarly studied. Vero cells (10^5) were infected with a rhinovirus in the presence of KY-1, at concentrations ranging between 1-100 μg. Twenty-four hours after virus infection, the cells were examined for cytopathic effect, evidencing viral infection.\nVero cells were infected with adenovirus in the presence of KY-1, also at concentrations ranging between 1-100 μg, and twenty-four hours after virus infection, the cells were examined for cytopathic effect."}, "HSV-1 KOS": {"tested_on": "HSV-1 KOS", "assay": "Inhibition of viral yield, wild type HSV-1 KOS", "conditions": "Human alphaherpesvirus 1, HeLa, read-out: ID90"}, "HIV-HXB": {"tested_on": "HIV-HXB", "assay": "Inhibition of syncytia formation, HIV-HXB (HTLV-IIIB)", "conditions": "Human immunodeficiency virus 1, 18 h, read-out: HIV-HXB ED100, complete inhibition of syncytia formation", "protocol": "Briefly, cells chronically infected with HTLV-IIIB or RF-II HIV strains were incubated in the presence of serial dilutions of the selected KY compound, then further cocultured with indicator cells. The extent of syncytia formation was scored under phase microscopy.\nRepresentative calix(n)arene compounds from Table 2 were tested for inhibition of cytopathic effects in cells infected with one of two HTLV-III strains, HTLV-IIIB and RF-II strains, as described in Example 12, and in the subsection above.\nHuman CD4^+ indicator cells (VB) and chronically infected H9 cells were maintained in RPMI-1640 medium supplemented with 5% fetal calf serum, 100 Units of penicillin per ml and 100 μg of streptomycin per ml at 37° C. in a humidified incubator containing 7% CO2.\nFor the fusion assay, serial dilutions between 1:2 and 1:2^8 of a selected KY compound, 1 mg/ml in PBS were made in a 96 well round bottom plate. The diluted KY compound was transferred to a 96 well flat-bottom plate. To each well was added 25 μg chronically infected H9 cells (at 2×10^6, cells/ml), or cells chronically infected with RF-II strain HIV, followed by incubation at 37° C. for 45 minutes. To each well was then added 25 μl VB cells (about 5×10^4 cells), and the cells and virus isolates were cocultured for 18 hours in a humid 5% CO2 atmosphere."}, "HSV-1 KOS (PFA)'": {"tested_on": "HSV-1 KOS (PFA)'", "assay": "Inhibition of viral yield, drug-resistant HSV-1 KOS(PFA)'", "conditions": "Human alphaherpesvirus 1, HeLa, read-out: ID90", "protocol": "(§1) These compounds tested were the nucleoside analogs acyclovir (ACV), ganciclovir (DHPG), phosphonoformate (PFA), and phosphomethoxyethyladenine (PMEA). Inhibition of viral yield was determined, as above, by infecting Hela cells in the presence of wild type or drug-resistant strains of HSV-1 or HSV-2, and serial dilutions of a selected anti-viral compound, and infecting Vero cells with serial dilutions of the Hela cell lysate, as above.\n(§2) The KOS (HSV-1) and 333 (HSV-2) are wild type viruses; the KOS(PMEA)' and KOS(PFA)' are drug-resistant HSV-1 strains having a DNA polymerase mutation. The 333(DHPG) strain is a drug-resistantHSV-2 strain having a thymidine kinase mutation.\n(§3) The following strains of HSV-1 and HSV-2 virus were used: KOS, a wild type HSV-1 virus; KOS (PMEA) and KOS (PFA), both drug-resistant HSV-1 viruses having a DNA polymerase mutation; 333, a wild type HSV-2 HSV-2 virus, and 333 (DHPG), a drug-resistant HSV-2 virus having a thymidine kinase mutation.\n(§4) After growth at 37° C. for 24 hours in 2 ml of RPMI-1640 containing 2% FCS and penicillin and streptomycin (P/S), the cells were frozen at -70° C. until the time for titration. The cells were freeze/thawed 3 times to release virus from the cells, serially diluted 10 fold, and the serial dilutions were added to Vero cells in culture. After 2 hours incubation at 37° C. the virus was removed and 0.5 ml methycellulose (4K cps) in RPMI-1640 and 2% FCS+P/S was added. Two days later, the medium was removed. The cells were stained in 0.8% crystal violet in 50% ethanol. The plaques formed were counted and the titer was calculated from the fold of dilutions. From the drug dose response, the concentration of each drug required to effect a 90% inhibition of virus yield, the IC90 concentration was determined."}, "HSV-2 333 (DHPG)'": {"tested_on": "HSV-2 333 (DHPG)'", "assay": "Inhibition of viral yield, drug-resistant HSV-2 333(DHPG)'", "conditions": "Human alphaherpesvirus 2, HeLa, read-out: ID90", "protocol": "as §1, §2, §3, §4"}, "HSV-2 [2]": {"tested_on": "HSV-2", "assay": "Topical treatment of genital HSV-2 infection, guinea pigs, first study", "protocol": "Briefly, female guinea pigs were infected intravaginally with HSV-2, then treated topically three times daily beginning 6 hours or 48 hours after inoculation with HSV-2, as described in Example 13. […] Swabs of vaginal secretion were obtained and assayed for viral activity by a standard CPE assay. The severity of genital lesions was scored on a 0-5+ scale through the period of primary infection (21 days).\n(§5) The MS strain of HSV-2 was utilized for the experimental animal infection. Female Hartley strain guinea pigs (Charles River Breeding Laboratories, Kingston, NY) weighing 250-300 g were inoculated intravaginally with 2.0×10^5 plaque-forming units of HSV-2 one hour after being swabbed for removal of vaginal secretions.\nIn the first study, groups of 10 guinea pigs were treated topically (0.1 ml intravaginally +0.1 ml on external genital skin) three times daily (approximately every eight hours) for seven days beginning 6 h or 48 h after inoculation with HSV-2.\nTo determine the effect of treatment on vaginal viral replication, swabs of vaginal secretions were obtained on days 1, 3, 5, 7 and 10 after HSV inoculation, placed in a tube containing 2.0 ml of media, vortexed and frozen at -70° C. until titrated for HSV-2. When all samples were collected, they were thawed, diluted serially and HSV-2 titers determined using rabbit kidney cells in a microtiter CPE assay.\n(§6) To determine the effect of therapy on the development and spread of external genital lesions, lesion severity was scored on a 0-5+ scale through the primary infection period (19-21 days). Lesion score-day areas and virus titer-day areas under the curve, and peak lesion scores and peak virus titers between untreated and placebo-treated or placebo-treated and drug-treated animals were compared using the Mann-Whitney U range sum test. A p-value of 0.05 or less was considered significant."}, "HSV-2 [3]": {"tested_on": "HSV-2", "assay": "Topical treatment of genital HSV-2 infection, guinea pigs, second study", "conditions": "for % Animals with Lesions / Lesion Score (AUC) / Mean Peak lesion score: 24 h", "protocol": "In another study using the guinea pig genital model described above, animals were infected with HSV-2, then treated with KY-1 or Y-1 topically at concentrations of 2% or 5% drug. […] Animals were treated and scored daily for severity of infection for 19 days.\nas §5\nFormulations of KY-1 or Y-1 were prepared by dissolving the compound in a 1.5% methyl cellulose solution such that final concentration of compound was 2% or 5% (wt/wt). Control animals were given either no treatment (N=10 animals) or treatment with placebo (1.5% methylcellulose solution).\nas §6\nAnimals were scored daily for 19 days following inoculation for presence of lesions and severity of lesions (on a 0-5+ point scale). Lesion scores were tabulated as area under the curve of daily lesion score vs. time (days) and peak lesion score observed. A known antiviral agent, acyclovir (ACV) was administered in a 5% formulation to 8 animals as a positive control in the study."}}, "data": [{"molecule": "O=S(=O)(O)c1cc2cc(S(=O)(=O)O)c3c(O)c2c(O)c1Cc1c(S(=O)(=O)O)cc2cc(S(=O)(=O)O)c(c(O)c2c1O)Cc1c(S(=O)(=O)O)cc2cc(S(=O)(=O)O)c(c(O)c2c1O)Cc1c(S(=O)(=O)O)cc2cc(S(=O)(=O)O)c(c(O)c2c1O)C3", "note": "[KY-1]", "values": [{"measurement": "IC50", "setting": "HSV-2 [1]", "value": 1.7, "unit": "µg/mL"}, {"measurement": "EC50", "setting": "RSV", "value": 0.19, "unit": "µg/mL"}, {"measurement": "reduction in cell clumping, adenovirus", "setting": "adenovirus", "value": "No reduction in cell clumping"}, {"measurement": "IC90", "setting": "HSV-1 KOS", "value": 1.9, "unit": "µg/mL"}, {"measurement": "EC100", "setting": "HIV-HXB", "value": 8, "unit": "µg/mL"}, {"measurement": "IC90", "setting": "HSV-1 KOS (PFA)'", "value": 4.3, "unit": "µg/mL"}, {"measurement": "IC90", "setting": "HSV-2 333 (DHPG)'", "value": 3.7, "unit": "µg/mL"}, {"measurement": "Lesion score Area Under Curve", "setting": "HSV-2 [2]; 1%, +6 h", "value": 30.8}, {"measurement": "Mean Peak lesion score", "setting": "HSV-2 [2]; 1%, +6 h", "value": 2.9}, {"measurement": "AUC, in words", "setting": "HSV-2 [2]; 1%, +6h, P<0.01", "value": "significantly reduced the AUC"}, {"measurement": "Lesion score Area Under Curve", "setting": "HSV-2 [2]; 1%, +48 h", "value": 46.6}, {"measurement": "Mean Peak lesion score", "setting": "HSV-2 [2]; 1%, +48 h", "value": 4.3}, {"measurement": "lesion development (AUC and mean peak lesion scores) versus placebo", "setting": "HSV-2 [2]; 5%, 6h after infection, P <0.001", "value": "significantly reduced"}, {"measurement": "Lesion score Area Under Curve", "setting": "HSV-2 [2]; 5%, +6 h", "value": 3.8}, {"measurement": "Mean Peak lesion score", "setting": "HSV-2 [2]; 5%, +6 h", "value": 0.8}, {"measurement": "Lesion score Area Under Curve", "setting": "HSV-2 [2]; 5%, +48 h", "value": 45.7}, {"measurement": "Mean Peak lesion score", "setting": "HSV-2 [2]; 5%, +48 h", "value": 3.7}, {"measurement": "% Animals with Lesions", "setting": "HSV-2 [3]; 2%", "value": 70, "unit": "%"}, {"measurement": "Lesion Score (AUC)", "setting": "HSV-2 [3]; 2%", "value": 16.2}, {"measurement": "Mean Peak lesion score", "setting": "HSV-2 [3]; 2%", "value": 2.2}, {"measurement": "% Animals with Lesions", "setting": "HSV-2 [3]; 6%", "value": 50, "unit": "%"}, {"measurement": "Lesion Score (AUC)", "setting": "HSV-2 [3]; 6%", "value": 17.5}, {"measurement": "Mean Peak lesion score", "setting": "HSV-2 [3]; 6%", "value": 1.7}, {"measurement": "lesions, in words", "setting": "HSV-2 [3]; 24 hours post-infection, 6% KY-1 or Y-1, 2% KY-1", "value": "reduced numbers of lesion bearing animals and reduced severity of lesions"}]}]}
